Assay [1] has as its target T1, ΔF508-CFTR (Homo sapiens, UniProt P13569, DEL508-508).
T1 construct: host or cells: CFBE41o-, doxycycline-inducible
Put plainly: CFTR cell surface levels using HRP-tagged ΔF508-CFTR expressing CFBE cells, in the presence of a co-corrector. The assay is classed as cell-based. The settings on record: HRP-tagged ΔF508-CFTR expressing CFBE cells, in the presence of 3 μM co-corrector; for EC50: read-out: EC50. Put shortly:
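Cells were seeded with 0.5 μg/mL doxycycline and held 68 h at 37 °C. Test compounds plus 3 μM co-corrector (final 0.1% DMSO) were then added for 20 h at 33 °C. Washed cells received HRP substrate, and luminescence was normalized between DMSO and 3 μM co-corrector controls.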

Assay [2] deals with T1, ΔF508-CFTR. Put plainly: CFTR cell surface levels using HRP-tagged ΔF508-CFTR expressing CFBE cells, intrinsic corrector capacity. The assay is classed as cell-based. The settings on record: for EC50: read-out: EC50. From the text:
Measuring CFTR Cell Surface Levels Using HRP-Tagged AF508-CFTR Expressing CFBE Cells
The HRP-tagged AF508-CFTR cell assay measures the expression of CFTR-ΔF508 at the plasma membrane. CFTR-ΔF508 has a folding defect leading to absence of protein at the plasma membrane. This assay is used to evaluate the capacity of compounds to increase the expression of CFTR-ΔF508 at the plasma membrane. The CFTR-ΔF508 is tagged with HRP (horse radish peroxidase enzyme) within the ECL4 (Extracellular loop 4) of CFTR (Phuan, P.-W. et al. Synergy-based small-molecule screen using a human lung epithelial cell line yields AF508-CFTR correctors that augment VX-809 maximal efficacy. Mol. Pharmacol. 86, 42-51 (2014)). When HRP-tagged AF508-CFTR is present at the plasma membrane, the HRP enzyme activity can be measured. The amount of CFTR-ΔF508 that can be rescued to the plasma membrane is correlated with the amount of functional enzyme that can be measured.
There are several ways to measure the capacity of compounds to rescue CFTR-ΔF508 to the plasma membrane; either compounds are evaluated on their own and the impact on plasma membrane levels is measured or compounds are evaluated in combination with a co-corrector, i.e. a compound that rescues CFTR-ΔF508 to the plasma membrane but rescue can be enhanced by addition of compounds due to a complementary mode of action.
Activity of Compounds for their Intrinsic Corrector Capacity:
For this purpose doxycycline-inducible AF508-CFTR-HRP expressing CFBE4lo-cells (obtained from Gergely Lukacs, McGill University) were maintained in MEM (Gibco; 31095) supplemented with 10% fetal bovine serum (Hyclone; SV30160.03) under puromycin (3 μg/mL) and G418 selection (0.2 mg/mL). For compound testing, cells were seeded at 4000 cells/well in white 384-well plates (Greiner; 781080) in 50 μL medium containing 0.5 μg/mL doxycycline and incubated for 68 hours at 37° C., 5% CO2. On day four, 10 μL test compounds diluted in PBS were added to the plates at a final DMSO concentration of 0.1%. All compound plates contained negative controls (DMSO) and positive controls (3 μM corrector, 3-[(2R,4R)-4-({[1-(2,2-difluoro-1,3-benzodioxol-5-yl)cyclopropyl]carbonyl}amino)-7-methoxy-3,4-dihydro-2H-chromen-2-yl]benzoic acid). Cell plates were incubated at 33° C., 5% CO2 for 20 hours. On day five, the cells were washed five times with phosphate-buffered saline, and HRP activity was assayed by the addition of 50 μL/well of HRP substrate (SuperSignal™ West Pico Chemiluminescent Substrate, Thermo Scientific; 34080). After incubation for 15 minutes in the dark, chemiluminescence was measured using a plate reader (EnVision®, Perkin Elmer). Raw data were normalized to percentage activity values using the equation: 100×(Sample−Negative control)/(Positive control−Negative Control).

The mark [3] stands for this setting: HRP-tagged ΔF508-CFTR expressing CFBE cells, intrinsic corrector capacity (no co-corrector), 33° C., 20 hours.
Where [4] appears, read: HRP-tagged ΔF508-CFTR CFBE41o- cells, compounds alone (intrinsic corrector capacity), 20 hours at 33° C., positive control 3 μM corrector.
Setting [5] is: HRP-tagged ΔF508-CFTR CFBE41o- cells, compounds alone (intrinsic corrector capacity), 20 hours at 33° C.

A value given as a limit tells only on which side of the number the result lay.

T1 sequence (P13569 with tags, fused parts or gaps DEL508-508): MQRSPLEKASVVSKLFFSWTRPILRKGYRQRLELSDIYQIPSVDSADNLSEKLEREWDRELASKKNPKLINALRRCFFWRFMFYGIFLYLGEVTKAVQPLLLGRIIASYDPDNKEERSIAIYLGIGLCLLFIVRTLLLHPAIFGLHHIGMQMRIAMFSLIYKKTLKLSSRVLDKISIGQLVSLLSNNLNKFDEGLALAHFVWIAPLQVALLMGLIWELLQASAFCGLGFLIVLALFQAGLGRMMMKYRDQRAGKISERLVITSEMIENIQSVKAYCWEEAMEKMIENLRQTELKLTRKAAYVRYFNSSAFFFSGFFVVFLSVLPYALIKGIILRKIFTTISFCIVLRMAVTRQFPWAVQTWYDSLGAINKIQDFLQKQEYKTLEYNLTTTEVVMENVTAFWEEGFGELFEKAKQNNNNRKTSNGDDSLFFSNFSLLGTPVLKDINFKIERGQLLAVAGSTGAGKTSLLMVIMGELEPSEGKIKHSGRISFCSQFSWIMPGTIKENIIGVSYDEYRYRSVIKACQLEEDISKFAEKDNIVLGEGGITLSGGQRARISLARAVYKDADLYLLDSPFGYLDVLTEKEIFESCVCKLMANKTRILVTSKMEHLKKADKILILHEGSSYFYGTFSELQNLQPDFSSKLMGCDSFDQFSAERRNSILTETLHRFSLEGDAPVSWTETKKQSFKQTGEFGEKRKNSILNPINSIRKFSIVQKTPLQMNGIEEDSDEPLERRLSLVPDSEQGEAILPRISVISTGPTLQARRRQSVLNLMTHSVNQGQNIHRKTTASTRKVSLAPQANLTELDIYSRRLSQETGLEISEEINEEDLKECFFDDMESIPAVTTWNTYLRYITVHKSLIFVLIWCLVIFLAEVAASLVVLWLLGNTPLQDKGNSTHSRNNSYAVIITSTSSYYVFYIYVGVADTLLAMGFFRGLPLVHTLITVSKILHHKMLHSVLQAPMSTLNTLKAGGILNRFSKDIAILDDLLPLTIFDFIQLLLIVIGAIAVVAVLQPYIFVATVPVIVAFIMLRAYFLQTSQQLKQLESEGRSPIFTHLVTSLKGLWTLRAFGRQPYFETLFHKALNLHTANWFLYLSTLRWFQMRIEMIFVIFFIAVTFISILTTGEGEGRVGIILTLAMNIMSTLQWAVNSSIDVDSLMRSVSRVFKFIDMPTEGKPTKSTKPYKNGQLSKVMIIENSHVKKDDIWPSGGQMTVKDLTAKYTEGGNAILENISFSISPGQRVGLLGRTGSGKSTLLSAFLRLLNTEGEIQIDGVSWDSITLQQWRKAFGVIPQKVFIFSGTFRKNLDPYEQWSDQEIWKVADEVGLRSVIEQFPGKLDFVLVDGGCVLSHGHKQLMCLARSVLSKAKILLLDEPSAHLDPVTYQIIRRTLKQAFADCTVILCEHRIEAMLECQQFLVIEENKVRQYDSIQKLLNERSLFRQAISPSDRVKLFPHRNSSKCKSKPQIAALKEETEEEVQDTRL

Take `CC1(CO)CN(c2cc(C(=O)O)nc3c2c(C2CCC2)nn3-c2ccccc2)C1` [compound 511, 3-cyclobutyl-4-[3-(hydroxymethyl)-3-methylazetidin-1-yl]-1-phenyl-1H-pyrazolo[3,4-b]pyridine-6-carboxylic acid]: in assay [1], the “% Activation” value was 214.6% and the EC50 (in general, the concentration giving half of the maximal effect) came out at 1030 nM. In assay [2] (setting [3]), the “% Activation” value is listed as 56.48% and the EC50 amounted to 3340 nM.

As for `CN(C)CC1CN(c2cc(C(=O)O)nc3c2c(C2CCC2)nn3-c2ccccc2)CCO1` (stereo not shown) [compound 562, 3-cyclobutyl-4-{2-[(dimethylamino)methyl]morpholin-4-yl}-1-phenyl-1H-pyrazolo[3,4-b]pyridine-6-carboxylic acid], in assay [1], the “% Activation” value is on record as 347% and the EC50 was found to be 921 nM. In assay [2] (setting [3]), the “% Activation” value is recorded as 154.7% and the EC50 was 1770 nM.

Turning to `COC1CN(c2cccc(-n3nc(C(C)C)c4c(-c5ccc(N6CCOCC6)cc5)cc(C(=O)O)nc43)c2)C1` [compound 164, 1-[3-(3-methoxyazetidin-1-yl)phenyl]-4-[4-(morpholin-4-yl)phenyl]-3-(propan-2-yl)-1H-pyrazolo[3,4-b]pyridine-6-carboxylic acid], the figures for the “% Activation” value in assay [1] and in assay [2] (setting [4]) were 608.5% and 359.9%, respectively. Moreover, the EC50 worked out at 375 nM in assay [1] and 675 nM in assay [2] (setting [5]).

Regarding `CC(C)c1nn(C2CCCCC2)c2nc(C(=O)O)cc(-c3ccc(N(C)C4CCOC4)nc3)c12` (stereo not shown) [compound 276, 1-cyclohexyl-4-{6-[methyl(oxolan-3-yl)amino]pyridin-3-yl}-3-(propan-2-yl)-1H-pyrazolo[3,4-b]pyridine-6-carboxylic acid], the “% Activation” value is given as 407.8% in assay [1] and 206.93% in assay [2] (setting [4]). Moreover, the EC50 in assay [1] was 372 nM; in assay [2] (setting [5]) it was 504 nM.

On to `Cc1nn(-c2ccccc2)c2nc(C(=O)O)cc(OC3CCN(C)CC3)c12` [compound 339, 3-methyl-4-[(1-methylpiperidin-4-yl)oxy]-1-phenyl-1H-pyrazolo[3,4-b]pyridine-6-carboxylic acid], for which the “% Activation” value was 126.85% in assay [1] and 15.162% in assay [2] (setting [4]). Besides, the EC50 in assay [1] and in assay [2] (setting [5]) was 7500 nM throughout.

With `CC(C)N1CNC(=O)C12CCN(c1cc(C(=O)O)nc3c1c(C1CCC1)nn3-c1ccccc1)CC2` [compound 469, 3-cyclobutyl-4-[4-oxo-1-(propan-2-yl)-1,3,8-triazaspiro[4.5]decan-8-yl]-1-phenyl-1H-pyrazolo[3,4-b]pyridine-6-carboxylic acid], in assay [1], the “% Activation” value was determined as 360.3% and the EC50 was 716 nM. Besides, in assay [2] (setting [3]), the “% Activation” value came to 198.95% and the half-maximal effective concentration (EC50) stood at 1120 nM.

Take `CC(C)c1nn(-c2ccc(F)cc2)c2nc(C(=O)O)cc(N3CCCC(C(F)F)C3)c12` (stereo not shown) [compound 399, 4-[3-(difluoromethyl)piperidin-1-yl]-1-(4-fluorophenyl)-3-(propan-2-yl)-1H-pyrazolo[3,4-b]pyridine-6-carboxylic acid]: the “% Activation” value in assay [1] is listed as 336.55%; in assay [2] (setting [3]), 137.6%. In addition, the EC50 in assay [1] came to 475 nM; in assay [2] (setting [3]) it was 824 nM.

On to `O=C(O)c1cc(N2CC(F)(F)C[C@H]2CO)c2c(C3CCC3)nn(-c3ccccc3)c2n1` [compound 538, 3-cyclobutyl-4-[(2S)-4,4-difluoro-2-(hydroxymethyl)pyrrolidin-1-yl]-1-phenyl-1H-pyrazolo[3,4-b]pyridine-6-carboxylic acid], for which, in assay [1], the “% Activation” value is recorded as 312.05% and the EC50 is 1540 nM. Further, in assay [2] (setting [3]), the “% Activation” value was 124.6% and the EC50 turned out to be 2430 nM.

On to `O=C(O)c1cc(N2CCC(F)(F)C2)c2c(C3CCC3)nn(-c3ccccc3)c2n1` [compound 441, 3-cyclobutyl-4-(3,3-difluoropyrrolidin-1-yl)-1-phenyl-1H-pyrazolo[3,4-b]pyridine-6-carboxylic acid], for which, in assay [1], the “% Activation” value is given as 289.75% and the EC50 was 1510 nM. For the same compound, in assay [2] (setting [3]), the “% Activation” value is 111.85% and the EC50 stood at 2050 nM.

For the compound `CN(C)CCCOc1cc(C(=O)O)nc2c1c(C1CCC1)nn2-c1ccccc1` [compound 635, 3-cyclobutyl-4-[3-(dimethylamino)propoxy]-1-phenyl-1H-pyrazolo[3,4-b]pyridine-6-carboxylic acid], in assay [1], the “% Activation” value stood at 233.85% and the EC50 was determined as 2110 nM. Further, in assay [2] (setting [3]), the “% Activation” value came out at 86.1% and the EC50 came out at 3330 nM.

For `O=C(O)c1cc(N2CC3(CCCCO3)C2)c2c(C3CCC3)nn(-c3ccccc3)c2n1` [compound 424, 3-cyclobutyl-4-(5-oxa-2-azaspiro[3.5]nonan-2-yl)-1-phenyl-1H-pyrazolo[3,4-b]pyridine-6-carboxylic acid], the results for the “% Activation” value in assay [1] and in assay [2] (setting [3]) were 254.9% and 86.32%, respectively. Also, the 50% effective concentration (EC50) in assay [1] was 829 nM; in assay [2] (setting [3]), 1080 nM.

Take `Cc1nn(-c2ccn(C)c(=O)c2)c2nc(C(=O)O)cc(-c3ccc(N4CCOCC4)cc3)c12` [compound 94, 3-methyl-1-(1-methyl-2-oxo-1,2-dihydropyridin-4-yl)-4-[4-(morpholin-4-yl)phenyl]-1H-pyrazolo[3,4-b]pyridine-6-carboxylic acid]: the “% Activation” value is listed as 119.4% in assay [1] and 3.061% in assay [2] (setting [4]). In addition, the EC50 in assay [1] and in assay [2] (setting [5]) was greater than 10000 nM throughout.

With `Cc1nn(-c2ccccc2)c2nc(C(=O)O)cc(N3CC4(CCOCC4)C3)c12` [compound 293, 3-methyl-4-(7-oxa-2-azaspiro[3.5]nonan-2-yl)-1-phenyl-1H-pyrazolo[3,4-b]pyridine-6-carboxylic acid], the “% Activation” value amounted to 264.9% in assay [1] and 90.275% in assay [2] (setting [4]). For the same compound, the EC50 in assay [1] and in assay [2] (setting [5]) was 2510 nM throughout.

For `CO[C@H]1C[C@@H](c2nn(-c3ccccc3)c3nc(C(=O)O)cc(-c4ccc(N5CCC(C#N)CC5)nc4)c32)C1` [compound 421, 4-[6-(4-cyanopiperidin-1-yl)pyridin-3-yl]-3-(cis-3-methoxycyclobutyl)-1-phenyl-1H-pyrazolo[3,4-b]pyridine-6-carboxylic acid], in assay [1], the “% Activation” value was found to be 368.65% and the EC50 amounted to 723 nM. Also, in assay [2] (setting [3]), the “% Activation” value worked out at 184.4% and the EC50 was 1290 nM.

`COCC(COC)Oc1cc(C(=O)O)nc2c1c(C(C)C)nn2-c1ccc(F)cc1` [compound 654, 4-[(1,3-dimethoxypropan-2-yl)oxy]-1-(4-fluorophenyl)-3-(propan-2-yl)-1H-pyrazolo[3,4-b]pyridine-6-carboxylic acid]: in assay [1], the “% Activation” value is 245.5% and the EC50 was 3330 nM. For the same compound, in assay [2] (setting [3]), the “% Activation” value came out at 66.19% and the EC50 worked out at 3330 nM.

Turning to `O=C(O)c1cc(OCCCN2CCOCC2)c2c(C3CCC3)nn(-c3ccccc3)c2n1` [compound 487, 3-cyclobutyl-4-[3-(morpholin-4-yl)propoxy]-1-phenyl-1H-pyrazolo[3,4-b]pyridine-6-carboxylic acid], in assay [1], the “% Activation” value was 316.5% and the EC50 was 491 nM. Also, in assay [2] (setting [3]), the “% Activation” value amounted to 142.7% and the EC50 turned out to be 835 nM.

For the origin of these results see patent US9796711B2, “Substituted pyrazolo[3,4-b]pyridin-6-carboxylic acids and method of use” (AbbVie S.àr.l., priority 2015, dated 2017).
